This note sets out measurements from patent US7060697B2, “Immunosuppressant compounds and compositions” (IRM LLC, priority 2003, dated 2006).

One assay relates to blood lymphocytes. As to the kind of experiment: Measurement of circulating lymphocytes (blood lymphocyte depletion). In kind it is in vivo, Rats (C57b1/6 male). Conditions: Rattus norvegicus, oral gavage, blood collected 6 and 24 hours after administration, read-out: ED50 (effective dose required displaying 50% of blood lymphocyte depletion). As to the method: C. In vivo: Screening Assays for Measurement of Blood Lymphocyte Depletion and Assessment of Heart Effect
Measurement of circulating lymphocytes: Compounds are dissolved in DMSO and diluted to obtain a final concentration of 4% DMSO (v/v, final concentration) and then further diluted in a constant volume of Tween80 25%/H2O, v/v. Tween80 25%/H2O (200 μl), 4% DMSO, and FTY720 (10 μg) are included as negative and positive controls, respectively. Rats (C57b1/6 male, 6–10 week-old) are administered 250–300 μL of compound solution orally by gavages under short isoflurane anesthesia.
Blood is collected from the retro-orbital sinus 6 and 24 hours after drug administration under short isoflurane anesthesia. Whole blood samples are subjected to hematology analysis. Peripheral lymphocyte counts are determined using an automated analyzer. Subpopulations of peripheral blood lymphocytes are stained by fluorochrome-conjugated specific antibodies and analyzed using a fluorescent activating cell sorter (Facscalibur). Two rats are used to assess the lymphocyte depletion activity of each compound screened. The result is an ED50, which is defined as the effective dose required displaying 50% of blood lymphocyte depletion.

The target in a further assay is T1, human EDG-1 (Homo sapiens, UniProt P21453).
T1 construct: c-myc (N); expressed in transfected cells; homogenized membranes
As to the kind of experiment: GPCR activation assay measuring GTP [γ-35S] binding to membranes from CHO cells expressing human EDG receptors. It counts as biochemical. As to the method:
A. In vitro: GPCR Activation Assay Measuring GTP [γ-^35S] Binding to Membranes Prepared from CHO Cells Expressing Human EDG Receptors
EDG-1 (S1P1) GTP [γ-^35S] binding assay: Homogenized membranes are prepared from CHO cell clones stably expressing a human EDG-1 N-terminal c-myc tag. Cells are grown in suspension in two 850 cm^2 roller bottles for three or fours days before harvesting. The cells are centrifuged down, washed once with cold PBS, and resuspended in ≦20 ml of Buffer A (20 mM HEPES, pH 7.4, 10 mM EDTA, EDTA-free complete protease inhibitor cocktail [1 tablet/25 ml]). The cell suspension is homogenized on ice, using a Polytron homogenizer at 30000 rpm at three intervals of 15 seconds each. The homogenate is first centrifuged at 2000 rpm on a tabletop low speed centrifuge for 10 minutes. The supernatant, after passing through a cell strainer, is then re-centrifuged at 50,000×g for 25 minutes at 4° C. The pellet is resuspended into buffer B (15% glycerol, 20 mM HEPES, pH 7.4, 0.1 mM EDTA, EDTA-free complete protease inhibitor cocktail [1 tablet/10 ml]). Protein concentration of the prep is determined using the BCA Protein Assay kit (Pierce) using BSA as standard. The membranes are aliquoted and kept frozen at −80° C.
Solutions of test compounds ranging from 10 mM to 0.01 nM are prepared in DMSO. S1P is diluted in 4% BSA solution as positive controls. […]

Some results are limits rather than exact numbers.

T1 sequence (P21453 whole entry): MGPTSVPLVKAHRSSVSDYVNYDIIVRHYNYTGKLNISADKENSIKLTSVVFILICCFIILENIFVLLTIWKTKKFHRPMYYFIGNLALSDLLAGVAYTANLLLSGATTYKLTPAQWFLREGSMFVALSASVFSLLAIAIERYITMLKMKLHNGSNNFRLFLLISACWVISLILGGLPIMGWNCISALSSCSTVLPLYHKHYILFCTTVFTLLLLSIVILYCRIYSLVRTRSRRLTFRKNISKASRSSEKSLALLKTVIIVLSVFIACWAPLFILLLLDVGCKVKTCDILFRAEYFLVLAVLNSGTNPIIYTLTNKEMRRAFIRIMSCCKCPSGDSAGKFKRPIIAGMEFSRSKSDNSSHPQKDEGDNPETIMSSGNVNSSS

Regarding `O=C(O)C1CN(Cc2ccc(SCc3ccc(-c4ccccc4)c(C(F)(F)F)c3)cc2)C1` [Compound 9, 1-[4-(2-trifluoromethyl-biphenyl-4-ylmethylsulfanyl)-benzyl]-azetidine-3-carboxylic acid], the ED50 in the assay on blood lymphocytes is less than 0.1 mg/kg. Also, a half-maximal effect at human EDG-1 (EDG-1 (S1P1) GTP [γ-35S] binding, CHO cell membranes) (EC50) was put at 0.82 nM. Besides, the “selectivity for EDG-1 compared to one or more of the other receptors including EDG-3, EDG-5, EDG-6 and EDG-8” value on human EDG-1 (GTP [γ-35S] binding assays) was “at least 1000 fold”.

By ED50 is commonly meant the midpoint of the dose-response relation. The term EC50 denotes the midpoint of the concentration-response curve. Higher therefore signals weaker potency.
